Consider seven compounds from EPA's ToxValDB 9.5.

Data set [1] has as its system Mus musculus. As to conditions: developmental; inhalation; M/F; delayed fetal ossification.
Data set [2] relates to Mus musculus. The settings on record: developmental; duration: 9 days; inhalation; M/F; CF1; developmental.
Data set [3] deals with Rattus norvegicus. As to conditions: oral.
The subject of data set [4] is Rattus norvegicus. As to conditions: oral. The source holds these as a separate data set.
Data set [5] concerns Rattus norvegicus. As to conditions: chronic; duration: 98 days; oral; diet; M/F; Wistar; hepatic, renal.
For data set [6], the system named is Canidae. As to conditions: for NOAEL / LOAEL: oral.
For data set [7], the system named is Rattus norvegicus.
Data set [8] relates to Oryctolagus sp. The settings on record: for LD50: acute, dermal.
For data set [9], the system named is Mus musculus. The settings on record: for LD50: acute.
Data set [10] relates to Rattus norvegicus. As to conditions: subchronic; duration: 42 days; oral; gavage; CD(SD).
For data set [11], the system named is Rattus norvegicus. The settings on record: developmental, oral, M.
Data set [12] deals with Rattus norvegicus. The settings on record: chronic; duration: 26 weeks; oral; diet; Liver: Altered weight.
Where [13] appears, read: subchronic, M/F, liver and kidney pathology.
The mark [14] stands for this setting: subchronic, duration: 90 days, diet, Beagle.
Setting [15] is: reproduction developmental, duration: 15 days, oral, diet, Sprague-Dawley.
The mark [16] stands for this setting: subchronic, duration: 90 days, oral, diet, Sprague-Dawley.
[17] abbreviates: subchronic, duration: 90 days, oral, diet.
The mark [18] stands for this setting: chronic, duration: 6 months, diet, M, increased liver-to-body weight and liver-to-brain weight ratios.

For orientation: LOAEL means the lowest tested level that showed an adverse finding. What is called NOAEL is the highest tested level that showed no adverse finding. On to `CCCl` [Chloroethane], for which, in [1], the LOAEL turned out to be 13000 mg/m3. In addition, the NOAEL in [1] was 4000 mg/m3; in [2], 3970 mg/m3; in [3] (short-term, duration: 14 days, drinking water, F, Fischer 344, Whole Body Effects), 361 mg/kg-day.

`Oc1cc(Cl)c(Cl)cc1Cl` [2,4,5-Trichlorophenol]: in data set [4] (setting [13]), the lowest-observed-adverse-effect level (LOAEL) amounted to 300 mg/kg-day and the NOEL was 100 mg/kg-day. The compound also showed an NOAEL in data set [5] of 100 mg/kg-day. In data set [3] (chronic, duration: 98 days, diet, M/F, Wistar, Hepatic, Urinary), the no-observed-adverse-effect level (NOAEL) was found to be 100 mg/kg-day.

For orientation: LD50 means the dose expected to kill half of the subjects tested. As to `Cc1cc(C(C)(C)C)c(O)c(C)c1Cn1c(=O)n(Cc2c(C)cc(C(C)(C)C)c(O)c2C)c(=O)n(Cc2c(C)cc(C(C)(C)C)c(O)c2C)c1=O` [Cyanox CY 1790], the NOAEL in data set [6] (subchronic, duration: 13 weeks, diet, Beagle) was determined as 46 mg/kg-day; in [6] (subchronic, duration: 30 days, diet, Beagle), 400 mg/kg-day; in data set [6] (setting [14]) it was 30 mg/kg-day; in data set [7] (setting [15]), 1000 ppm; in [7] (reproduction developmental, oral, diet, Sprague-Dawley, generation: F0), 1000 ppm; in data set [7] (reproduction developmental, oral, diet, Sprague-Dawley, generation: F1), 20000 ppm. This compound yielded an NOAEL in data set [7] (setting [16]) of 400 mg/kg-day. Further, the LD50 is above 10000 mg/kg in data set [7] (acute, oral, Wistar) and above 5000 mg/kg in data set [8]. Moreover, the LOAEL in [7] (setting [15]) is 10000 ppm.

Consider `C=CC[N+](C)(C)CC=C.[Cl-]` [Diallyldimethylammonium chloride], for which the figures for the LOAEL in [6] (setting [14]) and in data set [7] (setting [17]) were 800 mg/kg-day and 500 mg/kg-day, respectively. For the same compound, the NOAEL in data set [6] (setting [14]) was determined as 200 mg/kg-day; in [7] (developmental, duration: 9 days, oral, gavage, Sprague-Dawley) it was 6 mg/kg-day; in data set [7] (reproduction developmental, duration: 9 days, oral, gavage, F, Sprague-Dawley), 6 mg/kg-day; in data set [7] (reproduction developmental, duration: 133 days, oral, gavage, Sprague-Dawley, generation: F0), 1.25 mg/kg-day; in [7] (reproduction developmental, duration: 133 days, oral, gavage, Sprague-Dawley, generation: F1), 1.25 mg/kg-day; in data set [7] (reproduction developmental, duration: 133 days, oral, gavage, Sprague-Dawley, generation: F2) it was 1.25 mg/kg-day. In data set [7] (setting [17]), this compound registered an NOAEL of 50 mg/kg-day. The LD50 in data set [7] (acute, oral, gavage, Sprague-Dawley) is 2520 mg/kg; in data set [7] (acute, oral, gavage, Wistar) it was 3930 mg/kg.

Regarding `CC(C)(C)c1cc(Cn2c(=O)n(Cc3cc(C(C)(C)C)c(O)c(C(C)(C)C)c3)c(=O)n(Cc3cc(C(C)(C)C)c(O)c(C(C)(C)C)c3)c2=O)cc(C(C)(C)C)c1O`, the NOAEL in [6] (setting [14]) amounted to 370 mg/kg-day; in data set [6] (subchronic, duration: 90 days, diet, F, Beagle) it was 370 mg/kg-day; in [6] (subchronic, duration: 90 days, diet, M, Beagle), 370 mg/kg-day; in data set [7] (chronic, duration: 92 days, oral, diet, F, Tif: RAIf (SPF), hybrids of RII/1 x RII/2), 62.4 mg/kg-day; in data set [7] (chronic, duration: 92 days, oral, diet, M, Tif: RAIf (SPF), hybrids of RII/1 x RII/2) it was 234 mg/kg-day. Moreover, the LD50 in [7] (acute, dermal) was above 2000 mg/kg; in data set [7] (acute, dermal, Albino rats / Tif: RAI f (SPF)), above 2000 mg/kg; in [7] (acute, oral, gavage, Tif : Raif (SPF), F3 - hybrid of RII 1/ Tif x RII 2/ Tif), above 5000 mg/kg. This compound had an NOAEC in data set [7] (subchronic, duration: 90 days, oral, diet, Albino Rats / Charles River strain) of 960 mg/kg-day.

For the compound `CCCCCCCCCCCCCCCCCC(=O)OC[C@@H](O)[C@H]1OC[C@H](O)[C@H]1O` [Anhydrosorbitol stearate], the “NOAEL (% diet)” value was determined as 5 in [6] (chronic, duration: 20 months, dermal, Dog Other); 5 in [7] (reproduction developmental, duration: 2 years, oral, diet); 0.5 in data set [9] (chronic, duration: 80 weeks, dermal, (TO)). In data set [6] (chronic, duration: 21 months, diet, Mongrel or Irish terrier), this compound returned an LOAEL of 485 mg/kg-day. The compound also returned an LD50 in data set [7] (acute, oral, gavage, Wistar) above 15900 mg/kg. The NOEL in data set [10] worked out at 1000 mg/kg-day.

As usually defined, the LC50 is the concentration lethal to half of the exposed cells or organisms. The low end stands for greater toxicity, the high end for lower toxicity. For `CCCCOC(=O)c1ccccc1C(=O)OCc1ccccc1` [Benzyl butyl phthalate], the LOAEL in data set [4] (setting [18]) worked out at 470 mg/kg-day; in data set [7] (chronic, duration: 365 days, oral, diet, F, Fischer 344), 360 mg/kg-day; in data set [7] (short-term, duration: 21 days, oral, diet, Fischer 344), 639 mg/kg-day; in data set [7] (short-term, duration: 28 days, oral, diet, Fischer 344), 540 mg/kg-day. Further, the NOAEL was found to be 159 mg/kg-day in data set [4] (setting [18]); 500 mg/kg-day in [6] (subchronic, duration: 90 days, Beagle); 470 mg/kg-day in [7] (chronic, duration: 182 days, oral, diet, Fischer 344); 498 mg/kg-day in data set [7] (reproduction developmental, duration: 26 weeks, oral, diet, Fischer 344, generation: F0); 168 mg/kg-day in [7] (reproduction developmental, duration: 26 weeks, oral, diet, Fischer 344, generation: F1); 168 mg/kg-day in [7] (reproduction developmental, duration: 26 weeks, oral, diet, M, Fischer 344). Moreover, the NOAEL in data set [7] (reproduction developmental, duration: 8 days, oral, gavage, F, Wistar) is 500 mg/kg-day; in [7] (reproduction developmental, duration: 8 days, oral, gavage, Wistar, generation: F1), 500 mg/kg-day; in data set [7] (reproduction developmental, duration: 10 days, oral, diet, F, Sprague-Dawley), 420 mg/kg-day; in [7] (reproduction developmental, duration: 10 days, oral, diet, Sprague-Dawley, generation: F1), 1100 mg/kg-day; in data set [7] (reproduction developmental, duration: 14 days, oral, diet, Fischer 344, generation: F0), 750 mg/kg-day; in [7] (reproduction developmental, duration: 20 days, oral, diet, Wistar, generation: F1), above 1020 mg/kg-day. Moreover, the NOAEL in data set [7] (reproduction developmental, duration: 21 days, oral, diet, Fischer 344, generation: F0) is at most 679 mg/kg-day; in data set [7] (reproduction developmental, oral, diet, F, Wistar) it was below 631 mg/kg-day; in [7] (reproduction developmental, oral, diet, Wistar, generation: F0), 206 mg/kg-day; in data set [7] (short-term, duration: 14 days, oral, gavage, Sprague-Dawley) it was 160 mg/kg-day; in data set [7] (short-term, duration: 14 days, oral, gavage, Wistar), 480 mg/kg-day; in [7] (short-term, duration: 28 days, oral, diet, Sprague-Dawley) it was 1000 mg/kg-day. Further, the NOAEL in [7] (subchronic, duration: 42 days, oral, diet, Sprague-Dawley) is 500 mg/kg-day; in [7] (subchronic, duration: 90 days, inhalation, Sprague-Dawley), 0.218 mg/L; in data set [7] (setting [16]), 375 mg/kg-day; in data set [7] (subchronic, duration: 90 days, oral, diet, Wistar), 151 mg/kg-day; in data set [8] (reproduction developmental, duration: 12 days, oral, F, New Zealand), 10 mg/kg-day; in data set [9] (short-term, duration: 14 days, oral, diet, B6C3F1), above 5250 mg/kg-day. The no observed adverse effect level (NOAEL) in data set [12] was determined as 159 mg/kg-day. Further, the LC50 in [7] (acute, inhalation) was above 6.7 µg/mL. The LD50 in data set [7] (acute, injection, Intraperitoneal) was 2660 mg/kg; in data set [8], above 10000 mg/kg; in data set [9] (injection, Intraperitoneal, Swiss-Webster), 3160 mg/kg; in data set [9] (oral), 4170 mg/kg. For the same compound, the NOEL in [11] (Albino, generation: F1, F1: AGD (units not specified)) came out at 100 mg/kg-day; in [11] (gavage, Crj:CD, generation: F1, F1: AGD (mm) + F1: AGD (mm/cube root BW)) it was 400 mg/kg-day. The LOEL was 0.18 mg/kg-day in [11] (drinking water, Wistar Alpk, generation: F1, F1: AGD (mm)) and 100 mg/kg-day in [11] (gavage, Crj:CD, generation: F2, F2: AGD (mm)).
